Assay [1] has as its system M. tuberculosis. In words: MIC against M. tuberculosis, microplate Alamar Blue assay (MABA). The assay is classed as cell-based, Mycobacterium tuberculosis. Also noted: MIC90: unit not given beside the values. The following applies: for MIC90: MABA, Table 3, unit not given. How it is done:
MICs against M. tuberculosis. The MIC was defined as the minimum concentration of the compound required to achieve a reduction in fluorescence by 90% relative to the untreated bacterial controls. The anti-TB activity was determined by the microplate Alamar Blue assay (MABA) as previously described (Choules et al., Antimicrob. Agents Chemother. 2019, 63, e02204-02218).
For orientation: Alamar Blue is a resazurin reagent that responds to reducing activity.

For assay [2], the target named is T1, Mycobacterial ClpC1 FL (Mycobacterium tuberculosis, UniProt P9WPC9).
T1 construct: N-terminal domain (NTD) and the full-length protein (FL) by surface plasmon resonance (SPR)
T1 sequence (P9WPC9 whole entry, the tested form may be a part): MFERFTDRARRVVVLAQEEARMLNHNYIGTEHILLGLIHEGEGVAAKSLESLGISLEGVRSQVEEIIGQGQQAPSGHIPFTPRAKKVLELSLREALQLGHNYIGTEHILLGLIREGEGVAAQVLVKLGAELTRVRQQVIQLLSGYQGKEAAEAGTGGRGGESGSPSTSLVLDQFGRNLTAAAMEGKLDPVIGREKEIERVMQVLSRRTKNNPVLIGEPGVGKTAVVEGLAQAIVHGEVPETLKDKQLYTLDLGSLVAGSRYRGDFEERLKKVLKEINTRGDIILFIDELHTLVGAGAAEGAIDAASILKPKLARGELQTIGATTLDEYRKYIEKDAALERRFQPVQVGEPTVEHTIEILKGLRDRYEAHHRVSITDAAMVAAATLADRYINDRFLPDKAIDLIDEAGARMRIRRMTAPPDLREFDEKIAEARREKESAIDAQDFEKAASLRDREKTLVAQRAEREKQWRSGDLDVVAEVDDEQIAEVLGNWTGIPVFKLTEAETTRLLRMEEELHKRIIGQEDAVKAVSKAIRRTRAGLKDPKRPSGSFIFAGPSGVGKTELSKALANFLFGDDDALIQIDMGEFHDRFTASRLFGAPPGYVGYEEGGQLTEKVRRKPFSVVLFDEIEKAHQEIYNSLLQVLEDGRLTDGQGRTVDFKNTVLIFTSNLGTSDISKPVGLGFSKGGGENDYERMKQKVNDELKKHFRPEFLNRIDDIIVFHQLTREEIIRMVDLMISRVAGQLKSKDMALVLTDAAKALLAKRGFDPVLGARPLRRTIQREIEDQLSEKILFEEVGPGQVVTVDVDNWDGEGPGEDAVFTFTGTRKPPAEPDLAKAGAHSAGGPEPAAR
Description: SPR binding affinity to ClpC1 full-length protein (FL). How it is done:
(§1) Analysis of binding affinity to Mycobacterial ClpC1-NTD and FL by SPR. SPR binding assay was performed using a previously reported method (Choules et al., Antimicrob. Agents Chemother. 2019, 63, e02204-02218; Wolf et al., ACS Infect. Dis. 2019, 5, 829-840). Kinetic rate constants (ka and kd) were determined by fitting the double-reference data globally to the 1:1 Langmuir model embedded in the Biacore T200 evaluation software (v3.0). KD values were then calculated from the two rate constants (KD=kd/ka). Smaller KD values represent tighter binding affinities.
In general terms: Surface plasmon resonance follows binding to a sensor surface in real time, without labels.

The target in assay [3] is T2, Mycobacterial ClpC1-NTD (Mycobacterium tuberculosis, UniProt P9WPC9).
T2 construct: caseinolytic protein C1 (ClpC1) N-terminal domain (NTD)
In words: SPR binding affinity to ClpC1-NTD. How it is done:
as §1

Where [4] appears, read: ClpC1 full-length protein, KD=kd/ka, Table 1, read-out: SPR KD FL.
Where [5] appears, read: ClpC1 N-terminal domain, KD=kd/ka, Table 1, read-out: SPR KD NTD.

Molecules are shown by their SMILES. Values after ≈ are worked out from the molar mass of the structure shown. Where two headings read alike, the source gives them in different places.

For orientation: Kd means the concentration at which binding is half-saturated.

`C/C=C/C[C@@H]1NC(=O)[C@H](CC(C)C)N2C=C(C)C[C@@H](C2=O)N(C)C(=O)[C@H](C)NC(=O)[C@H](Cc2ccc(O)c(N)c2)NC(=O)[C@H](CC(C)C)N(C)C(=O)[C@H](Cc2cn(C(C)(C)[C@H](O)CCl)c3ccccc23)NC1=O` [Compound 19] showed an MIC in assay [1] (Mycobacterium tuberculosis) of 0.887 µM (≈ 0.914 µg/mL). Also, the Kd in assay [2] (setting [4]) was found to be 319 nM; in assay [3] (setting [5]), 501 nM.

In assay [1] (Mycobacterium tuberculosis), `C/C=C/C[C@@H]1NC(=O)[C@H](CC(C)C)N2C(=O)[C@H](CC(C)[C@H]2OCCC)N(C)C(=O)[C@H](C)NC(=O)[C@H](Cc2ccc(O)c([N+](=O)[O-])c2)NC(=O)[C@H](CC(C)C)N(C)C(=O)[C@H](Cc2cn(C(C)(C)[C@H](O)CCl)c3ccccc23)NC1=O` (some centres unmarked) [Compound 10] registered an MIC of 0.75 ± 0.0107 µM (≈ 0.84 µg/mL). Besides, the dissociation constant (Kd) in assay [2] (setting [4]) turned out to be 143 nM; in assay [3] (setting [5]), 90.7 nM.

As for `C/C=C/C[C@@H]1NC(=O)[C@H](CC(C)C)N2C(=O)[C@H](CC(C)[C@H]2OCC)N(C)C(=O)[C@H](C)NC(=O)[C@H](Cc2ccc(O)c([N+](=O)[O-])c2)NC(=O)[C@H](CC(C)C)N(C)C(=O)[C@H](Cc2cn(C(C)(C)[C@H](O)CCl)c3ccccc23)NC1=O` (some centres unmarked) [Compound 8], in assay [1] (Mycobacterium tuberculosis), the MIC turned out to be 0.244 ± 0.0271 µM (≈ 0.27 µg/mL). Also, the Kd in assay [2] (setting [4]) came to 142 nM; in assay [3] (setting [5]), 120 nM.

With `NNC(=O)c1ccncc1` [INH, isoniazid, reference compound], in assay [1], the MIC90 worked out at 463.

As for `C/C=C/C[C@@H]1NC(=O)[C@H](CC(C)C)N2C(=O)[C@H](CC(C)[C@H]2OC)N(C)C(=O)[C@H](C)NC(=O)[C@H](Cc2ccc(OC)c([N+](=O)[O-])c2)NC(=O)[C@H](CC(C)C)N(C)C(=O)[C@H](Cc2cn(C(C)(C)[C@H]3CO3)c3ccccc23)NC1=O` (some centres unmarked) [Compound 30], the MIC in assay [1] (Mycobacterium tuberculosis) came to 0.0058 µM (≈ 0.00621 µg/mL). In addition, the dissociation constant Kd in assay [2] (setting [4]) worked out at 75.1 nM; in assay [3] (setting [5]) it was 55.5 nM.

Compound `C/C=C/C[C@@H]1NC(=O)[C@H](CC(C)C)N2C(=O)[C@H](CC(C)[C@H]2OC)N(C)C(=O)[C@H](C)NC(=O)[C@H](Cc2ccc(OC)c([N+](=O)[O-])c2)NC(=O)[C@H](CC(C)C)N(C)C(=O)[C@H](Cc2cn(C(C)(C)[C@H]3CO3)c3ccccc23)N(C)C1=O` (some centres unmarked) [Compound 24] gave an MIC in assay [1] (Mycobacterium tuberculosis) of 0.0646 µM (≈ 0.07 µg/mL). The Kd worked out at 513 nM in assay [2] (setting [4]) and 451 nM in assay [3] (setting [5]).

`C/C=C/C[C@@H]1NC(=O)[C@H](CC(C)C)N2C=C(C)C[C@@H](C2=O)N(C)C(=O)[C@H](C)NC(=O)[C@H](Cc2ccc(OC(=O)c3ccccc3)c([N+](=O)[O-])c2)NC(=O)[C@H](CC(C)C)N(C)C(=O)[C@H](Cc2cn(C(C)(C)[C@H](O)CCl)c3ccccc23)NC1=O` [Compound 17] gave an MIC in assay [1] (Mycobacterium tuberculosis) of 0.0529 µM (≈ 0.0616 µg/mL). Further, the figures for the Kd in assay [2] and in assay [3] were 2030 nM and 1250 nM, respectively.

In turn, `C/C=C/C[C@@H]1NC(=O)[C@H](CC(C)C)N2C(=O)[C@H](CC(C)[C@H]2O)N(C)C(=O)[C@H](C)NC(=O)[C@H](Cc2ccc(OC(C)=O)c([N+](=O)[O-])c2)NC(=O)[C@H](CC(C)C)N(C)C(=O)[C@H](Cc2cn(C(C)(C)[C@H]3CO3)c3ccccc23)NC1=O` (some centres unmarked) [Compound 25] showed an MIC in assay [1] (Mycobacterium tuberculosis) of 0.0184 ± 0.006 µM (≈ 0.02 µg/mL). The results for the Kd in assay [2] (setting [4]) and in assay [3] (setting [5]) were 72.5 nM and 56 nM, respectively.

In assay [1] (Mycobacterium tuberculosis), `C/C=C/C[C@@H]1NC(=O)[C@H](CC(C)C)N2C(=O)[C@H](CC(C)[C@H]2O)N(C)C(=O)[C@H](C)NC(=O)[C@H](Cc2ccc(OC)c([N+](=O)[O-])c2)NC(=O)[C@H](CC(C)C)N(C)C(=O)[C@H](Cc2cn(C(C)(C)[C@H]3CO3)c3ccccc23)NC1=O` (some centres unmarked) [Compound 29] returned an MIC of 0.0543 µM (≈ 0.0574 µg/mL). In addition, the Kd came to 133 nM in assay [2] (setting [4]) and 117 nM in assay [3] (setting [5]).

For the compound `C/C=C/C[C@@H]1NC(=O)[C@H](CC(C)C)N2C=C(C)C[C@@H](C2=O)N(C)C(=O)[C@H](C)NC(=O)[C@H](Cc2ccc(OC)c([N+](=O)[O-])c2)NC(=O)[C@H](CC(C)C)N(C)C(=O)[C@H](Cc2cn(C(C)(C)[C@H]3CO3)c3ccccc23)NC1=O` [Compound 16], the MIC in assay [1] (Mycobacterium tuberculosis) was determined as 0.0726 µM (≈ 0.0754 µg/mL). Also, the figures for the Kd in assay [2] (setting [4]) and in assay [3] (setting [5]) were 883 nM and 580 nM, respectively.

On to `C/C=C/C[C@@H]1NC(=O)[C@H](CC(C)C)N2C(=O)[C@H](CC(C)[C@H]2OC)N(C)C(=O)[C@H](C)NC(=O)[C@H](Cc2ccc(O)c([N+](=O)[O-])c2)NC(=O)[C@H](CC(C)C)N(C)C(=O)[C@H](Cc2cn(C(C)(C)[C@H](O)CCl)c3ccccc23)NC1=O` (some centres unmarked) [Compound 5], for which the dissociation constant Kd in assay [2] (setting [4]) is 163 nM; in assay [3] (setting [5]), 123 nM.

For `C/C=C/C[C@@H]1NC(=O)[C@H](CC(C)C)N2C=C(C)C[C@@H](C2=O)N(C)C(=O)[C@H](C)NC(=O)[C@H](Cc2ccc3c(c2)N=C(C)CC(C)(C)O3)NC(=O)[C@H](CC(C)C)N(C)C(=O)[C@H](Cc2cn(C(C)(C)[C@H](O)CCl)c3ccccc23)NC1=O` [Compound 20], the MIC in assay [1] (Mycobacterium tuberculosis) came out at 0.782 µM (≈ 0.869 µg/mL). Also, the dissociation constant (Kd) in assay [2] (setting [4]) amounted to 234 nM; in assay [3] (setting [5]), 196 nM.

`C/C=C/C[C@@H]1NC(=O)[C@H](CC(C)C)N2C(=O)[C@H](CC(C)[C@H]2O)N(C)C(=O)[C@H](C)NC(=O)[C@H](Cc2ccc(O)c([N+](=O)[O-])c2)NC(=O)[C@H](CC(C)C)N(C)C(=O)[C@H](Cc2cn(C(C)(C)[C@H](O)CCl)c3ccccc23)NC1=O` (some centres unmarked) [Compound 7] returned an MIC in assay [1] (Mycobacterium tuberculosis) of 0.0464 ± 0.0046 µM (≈ 0.0501 µg/mL). In addition, the Kd in assay [2] (setting [4]) turned out to be 116 nM; in assay [3] (setting [5]), 114 nM.

As to `C/C=C/C[C@@H]1NC(=O)[C@H](CC(C)C)N2C(=O)[C@H](CC(C)[C@H]2OC(C)=O)N(C)C(=O)[C@H](C)NC(=O)[C@H](Cc2ccc(OC(C)=O)c([N+](=O)[O-])c2)NC(=O)[C@H](CC(C)C)N(C)C(=O)[C@H](Cc2cn(C(C)(C)[C@H]3CO3)c3ccccc23)NC1=O` (some centres unmarked) [Compound 26], the MIC in assay [1] (Mycobacterium tuberculosis) came to 0.0089 ± 0.0036 µM (≈ 0.01 µg/mL). Also, the dissociation constant (Kd) was found to be 16 nM in assay [2] (setting [4]) and 33.8 nM in assay [3] (setting [5]).

As for `C/C=C/C[C@@H]1NC(=O)[C@H](CC(C)C)N2C=C(C)C[C@@H](C2=O)N(C)C(=O)[C@H](C)NC(=O)[C@H](Cc2ccc(O)c([N+](=O)[O-])c2)NC(=O)[C@H](CC(C)C)N(C)C(=O)[C@H](Cc2cn(C(C)(C)[C@H](O)CCl)c3ccccc23)NC1=O` [Compound 3], the MIC in assay [1] (Mycobacterium tuberculosis) is 0.0188 ± 0.004 µM (≈ 0.0199 µg/mL). The equilibrium dissociation constant (Kd) in assay [2] (setting [4]) is 97.1 nM; in assay [3] (setting [5]), 82.3 nM.

The compound `C/C=C/C[C@@H]1NC(=O)[C@H](CC(C)C)N2C(=O)[C@H](CC(C)[C@H]2OC)N(C)C(=O)[C@H](C)NC(=O)[C@H](Cc2ccc(O)c([N+](=O)[O-])c2)NC(=O)[C@H](CC(C)C)N(C)C(=O)[C@H](Cc2cn(C(C)(C)[C@H](O)COC)c3ccccc23)NC1=O` (some centres unmarked) [Compound 4] came in with an MIC in assay [1] (Mycobacterium tuberculosis) of 0.0064 ± 0.0018 µM (≈ 0.00697 µg/mL). The results for the Kd in assay [2] (setting [4]) and in assay [3] (setting [5]) were 79.9 nM and 88.5 nM, respectively.

Regarding `C/C=C/C[C@@H]1NC(=O)[C@H](CC(C)C)N2C(=O)[C@H](CC(C)[C@H]2OC)N(C)C(=O)[C@H](C)NC(=O)[C@H](Cc2ccc(O)c([N+](=O)[O-])c2)NC(=O)[C@H](CC(C)C)N(C)C(=O)[C@H](Cc2cn(C(C)(C)[C@H]3CO3)c3ccccc23)NC1=O` (some centres unmarked) [Compound 6], the “increase in activity compared to rufomycin analogues 1 and 2” value in assay [1] (MIC ratio, in words) is on record as “ten-fold increase in activity”. Further, in assay [1] (text summary of Table 1, unit not given), the MIC was determined as 1.9. Also, the figures for the Kd in assay [2] (setting [4]) and in assay [3] (setting [5]) were 31.7 nM and 103 nM, respectively.

In assay [1], `CO[C@H]1/C=C/O[C@@]2(C)Oc3c(C)c(O)c4c(O)c(c(/C=N/N5CCN(C)CC5)c(O)c4c3C2=O)NC(=O)/C(C)=C\C=C\[C@H](C)[C@H](O)[C@@H](C)[C@@H](O)[C@@H](C)[C@H](OC(C)=O)[C@@H]1C` [RMP, rifampin, reference compound] came in with an MIC90 of 28.

Source of the values: patent US20220009967A1, “Isolation and Semi-Synthesis of Rufomycin Analogs” (THE BOARD OF TRUSTEES OF THE UNIVERSITY OF ILLINOIS, priority 2020, published 2022).
